What was measured:
MDA-MB-231 cells = test: Cytotoxicity test, Cell Counting Kit-8, 72 hours; assay type: cell-based; conditions: Homo sapiens, MDA-MB-231, breast cancer
Experimental: The experiment was carried out in the same manner as that in the case of using KR12. The cells used in the experiment were Kelly cells, SK-N-SH cells, IMR-32 cells, SK-N-AS cells, and MDA-MB-231 cells. These cells were cultured in a DMEM, 10% FBS and 1% Pen/St medium, and in an RPMI1640, 10% FBS and 1% Pen/St medium, respectively. The cells of each type were seeded in each well of a 96-well plate at a cell density of 1000 cells/50 μl/well, and were then cultured under conditions of 37° C., 5% CO2, and saturated humidity for 24 hours. Thereafter, a reagent was diluted with a medium (final concentration: 1, 3, 10, 30, and 100 nM), and the diluted reagent was then added to the cultured cells in an amount of 50 μl/well, and the obtained mixture was then blended. The thus obtained mixture was cultured again under conditions of 37° C., 5% CO2, and saturated humidity for 72 hours. […] The absorbance was measured using Microplate Reader MTP-310 Lab (COLONA ELECTORIC), and the IC50 value was then calculated.
The experiment was carried out in the same manner as that in the case of using KR12. […] The absorbance was measured using Microplate Reader MTP-310 Lab (COLONA ELECTORIC), and the IC50 value was then calculated.

MCF7 cells = test: Cytotoxicity test, Cell Counting Kit-8, 72 hours; assay type: cell-based; conditions: Homo sapiens, MCF7, breast cancer, PIK3CA E545K, FIG. 27A
Experimental: (§1) The experiment was carried out in the same manner as that in the case of using KR12. The cells used in the experiment were MCF7 cells and MDA-MB-231 cells. These cells were cultured in a DMEM, 10% FBS and 1% Pen/St medium, and in an RPMI1640, 10% FBS and 1% Pen/St medium, respectively. The cells of each type were seeded in each well of a 96-well plate at a cell density of 1000 cells/50 μl/well, and were then cultured under conditions of 37° C., 5% CO2, and saturated humidity for 24 hours. Thereafter, a reagent was diluted with a medium (final concentration: 1, 3, 10, 30, and 100 nM), and the diluted reagent was then added to the cultured cells in an amount of 50 μl/well, and the obtained mixture was then blended. The thus obtained mixture was cultured again under conditions of 37° C., 5% CO2, and saturated humidity for 72 hours. Thereafter, Cell Counting Kit-8 (DOJINDO) was added to the obtained culture in an amount of 10 μl/well, and the thus obtained mixture was blended and was then cultured under conditions of 37° C., 5% CO2, and saturated humidity for 2 hours. The absorbance was measured using Microplate Reader MTP-310 Lab (COLONA ELECTORIC), and the IC50 value was then calculated.

Kelly cells = test: Cytotoxicity test, Cell Counting Kit-8, 72 hours; assay type: cell-based; conditions: ALK F1174L neuroblastoma
Experimental: as §1, with “Kelly cells, SK-N-SH cells, IMR-32 cells, SK-N-AS cells,” for “MCF7 cells”

SK-N-AS cells = test: Cytotoxicity test, Cell Counting Kit-8, 72 hours; assay type: cell-based; conditions: Homo sapiens, wild-type ALK neuroblastoma
Experimental: as §1, with “Kelly cells, SK-N-SH cells, IMR-32 cells, SK-N-AS cells,” for “MCF7 cells”

SK-N-SH cells = test: Cytotoxicity test, Cell Counting Kit-8, 72 hours; assay type: cell-based; conditions: Homo sapiens, ALK F1174L neuroblastoma
Experimental: as §1, with “Kelly cells, SK-N-SH cells, IMR-32 cells, SK-N-AS cells,” for “MCF7 cells”

IMR-32 cells = test: Cytotoxicity test, Cell Counting Kit-8, 72 hours; assay type: cell-based; conditions: Homo sapiens
Experimental: as §1, with “Kelly cells, SK-N-SH cells, IMR-32 cells, SK-N-AS cells,” for “MCF7 cells”
as §1, with “IMR-32” for “MCF7”, “TGW” for “MDA-MB-231”

TGW cells = test: Cytotoxicity test, Cell Counting Kit-8, 72 hours; assay type: cell-based; conditions: TGW cells, 1 to 100 nM, FIG. 33
Experimental: as §1, with “IMR-32” for “MCF7”, “TGW” for “MDA-MB-231”

[1] = Body weight and health condition of treated nude mice; assay type: in vivo; conditions: nude mice with SW480 cells; FIG. 15; seco CBI 8.4 mmol
Experimental: The below-mentioned 3 types of PBS solutions containing each type of cells were subcutaneously transplanted into the femurs of nude mice (i.e., HT29 into 7 mice, LS180 into 7 mice, and SW480 into 6 mice), and thereafter, at a time point in which a tumor adhered to the living body of each mouse and the tumor volume became approximately 100 mm^3, a drug was prepared with a composition of 3.4 mmol KR12 (1.36 mM KR12 dissolved in 2.5 μL of DMSO and 197.5 μL of PBS), or of a DMSO/PBS control (2.5 μL of DMSO and 197.5 μL of PBS). The prepared drug was subjected to sonication for 10 minutes, and 200 μL of the drug was administered to each mouse via the caudal vein thereof. The body weight and the tumor size were measured once three days, and the size of the tumor was measured by the method of 0.52×L×W×D(1/6×π×L×W×D).
Using, as controls, PIP-indole-seco-CBI (KR13) not recognizing a codon 12 mutation and 8.4 mmol seco CBI (3.36 mM CBI dissolved in 2.5 μL of DMSO and 197.5 μL of PBS), instead of the DMSO/PBS control, an experiment was carried out by the same method as that of the above section 11.

LS180 cells = test: Cytotoxicity test, WST-8 (cell counting kit-8), 48 hours; assay type: cell-based, human; conditions: LS180 cells
Experimental: Using LS180 colon cell line, the cells were seeded in each well of a 96-well microplate, resulting in a cell density of 3000 to 5000 cells/well, and they were then cultured overnight. On the following day, KR12 recognizing a codon 12 mutation, WT recognizing wild-type KRAS, and C12-Dp having the same structure as that of KR12, to which an alkylating agent had not been added, were each added to the cultured cells in concentrations of 1 nM, 10 nM, 30 nM, 100 nM, 300 nM, and 1 μM, and were then treated for 48 hours. Thereafter, a WST-8 reagent was added to each well, using cell counting kit-8 (DOJINDO), and the obtained mixture was then reacted for 2 hours. After that, the number of cells was counted at a wavelength of 450 nm according to a colorimetric analysis method using a microplate reader. The method of counting the number of cells comprises: 1) obtaining the mean value of the medium alone, 2) subtracting the mean value of the medium from each well, 3) obtaining the mean value of DMSO, 4) dividing the medium-subtracted value by the mean value of DMSO and then multiplying by 100, 5) obtaining the mean value of each treatment group and a standard deviation, and then preparing a graph. The calculation formula of IC50 is the following: IC50=10 (LOG (A/B)×(50−C)/(D−C)+LOG (B)), wherein A: a higher concentration of two concentrations sandwiching 50%, B: a lower concentration of two concentrations sandwiching 50%, C: inhibitory percentage at B, and D: inhibitory percentage at A.
Using colon cancer and pancreatic cancer cell lines, the cells were seeded in each well of a 96-well microplate, resulting in a cell density of 3000 to 5000 cells/well, and they were then cultured overnight. On the following day, the cells of each type were treated with KR12 recognizing a codon 12 mutation in concentrations of 1 nM, 10 nM, 30 nM, 100 nM, 300 nM, and 1 μM for 48 hours. Thereafter, a WST-8 reagent was added to each well, using cell counting kit-8, and the obtained mixture was then reacted for 2 hours. After that, the number of cells was counted at a wavelength of 450 nm according to a colorimetric analysis method using a microplate reader. The method of counting the number of cells comprises: 1) obtaining the mean value of the medium alone, 2) subtracting the mean value of the medium from each well, 3) obtaining the mean value of DMSO, 4) dividing the medium-subtracted value by the mean value of DMSO and then multiplying by 100, 5) obtaining the mean value of each treatment group and a standard deviation, and then preparing a graph. […]

**Q.** Which results are given for CC(=O)Nc1cc(C(=O)Nc2cc(C(=O)Nc3cn(C)c(C(=O)Nc4cc(C(=O)NCCC(=O)Nc5cn(C)c(C(=O)Nc6cn(C)c(C(=O)NCCCC(=O)Nc7cc(C(=O)Nc8cc(C(=O)NCCC(=O)Nc9cn(C)c(C(=O)Nc%10cc(C(=O)Nc%11ccc%12[nH]c(C(=O)N%13CC(CCl)c%14c%13cc(O)c%13ccccc%14%13)cc%12c%11)n(C)c%10)n9)n(C)c8)n(C)c7)n6)n5)n(C)c4)n3)n(C)c2)n(C)c1 (stereo not shown) [P3A-E5K-1]?
**A.** IC50 (MDA-MB-231 cells; wild-type PIK3CA gene, FIG. 27B): > 100 nM; IC50 (MCF7 cells): 53.8 nM

**Q.** For CC(=O)Nc1cc(C(=O)Nc2cc(C(=O)Nc3cc(C(=O)Nc4cc(C(=O)NCCC(=O)Nc5cc(C(=O)Nc6cc(C(=O)Nc7cc(C(=O)NCCCC(=O)Nc8cn(C)c(C(=O)Nc9cn(C)c(C(=O)NCCC(=O)Nc%10cn(C)c(C(=O)Nc%11cn(C)c(C(=O)Nc%12cc(C(=O)Nc%13ccc%14[nH]c(C(=O)N%15CC(CCl)c%16c%15cc(O)c%15ccccc%16%15)cc%14c%13)n(C)c%12)n%11)n%10)n9)n8)n(C)c7)n(C)c6)n(C)c5)n(C)c4)n(C)c3)n(C)c2)n(C)c1 (stereo not shown) [ALK-FL-1], which IC50 (MDA-MB-231 cells; wild-type ALK gene) is on record?
**A.** Its IC50 is 7.5 nM.

**Q.** And the IC50 (Kelly cells)?
**A.** Its IC50 is 0.09 nM.

**Q.** What about the IC50 (SK-N-AS cells) of the same molecule?
**A.** Its IC50 is 2.6 nM.

**Q.** What about the IC50 (SK-N-SH cells) of the same molecule?
**A.** Its IC50 is 0.13 nM.

**Q.** And the IC50 (IMR-32 cells; IMR-32, IMR32, wild-type ALK neuroblastoma)?
**A.** The IC50 was 0.46 nM.

**Q.** With CC(=O)Nc1cc(C(=O)Nc2cn(C)c(C(=O)Nc3cc(C(=O)NCCC(=O)Nc4cn(C)c(C(=O)Nc5cc(C(=O)NCCCC(=O)Nc6cc(C(=O)Nc7cc(C(=O)NCCC(=O)Nc8cc(C(=O)Nc9ccc%10[nH]c(C(=O)N%11CC(CCl)c%12c%11cc(O)c%11ccccc%12%11)cc%10c9)n(C)c8)n(C)c7)n(C)c6)n(C)c5)n4)n(C)c3)n2)n(C)c1 (stereo not shown) [MYCNA2] as the molecule, how does the IC50 (TGW cells) read?
**A.** The IC50 was 11.2 nM.

**Q.** And the IC50 (IMR-32 cells; IMR-32 cells, 1 to 100 nM, FIG. 33)?
**A.** The IC50 was 12.1 nM.

**Q.** For Oc1cc2c(c3ccccc13)C(CCl)CN2 (stereo not shown) [seco-CBI, 1-chloromethyl-5-hydroxy-1,2-dihydro-3H-benzo[e]indole], which “tendency of body weight reduction” value [1] is on record?
**A.** The value was “the tendency of body weight reduction, which was observed”.

**Q.** Which IC50 (LS180 cells; Homo sapiens, WST-8, FIG. 8, read-out: IC50) does the source give for CC(=O)Nc1cn(C)c(C(=O)Nc2cn(C)c(C(=O)NCCC(=O)Nc3cn(C)c(C(=O)Nc4cn(C)c(C(=O)Nc5cc(C(=O)Nc6cn(C)c(C(=O)NCCCC(=O)Nc7cc(C(=O)Nc8cn(C)c(C(=O)NCCC(=O)Nc9cc(C(=O)Nc%10cc(C(=O)Nc%11ccc%12[nH]c(C(=O)N%13CC(CCl)c%14c%13cc(O)c%13ccccc%14%13)cc%12c%11)n(C)c%10)n(C)c9)n8)n(C)c7)n6)n(C)c5)n4)n3)n2)n1 (stereo not shown) [WT] here?
**A.** The IC50 was 193 nM.

**Q.** With CC(=O)Nc1cn(C)c(C(=O)Nc2cc(C(=O)NCCC(=O)Nc3cn(C)c(C(=O)Nc4cn(C)c(C(=O)Nc5cc(C(=O)Nc6cn(C)c(C(=O)NCCCC(=O)Nc7cc(C(=O)Nc8cn(C)c(C(=O)NCCC(=O)Nc9cc(C(=O)Nc%10cc(C(=O)Nc%11ccc%12[nH]c(C(=O)NCCC(=O)N(C)C)cc%12c%11)n(C)c%10)n(C)c9)n8)n(C)c7)n6)n(C)c5)n4)n3)n(C)c2)n1 [C12-Dp] as the molecule, how does the “suppression of the cell growth” value (LS180 cells; 1 nM to 1 μM, FIG. 8) read?
**A.** The value was “suppression of the cell growth was not observed”.

**Q.** With CC(=O)Nc1cc(C(=O)Nc2cc(C(=O)Nc3cn(C)c(C(=O)NCCC(=O)Nc4cc(C(=O)Nc5cn(C)c(C(=O)Nc6cn(C)c(C(=O)NCCCC(=O)Nc7cc(C(=O)Nc8cc(C(=O)NCCC(=O)Nc9cn(C)c(C(=O)Nc%10cc(C(=O)Nc%11ccc%12[nH]c(C(=O)N%13CC(CCl)c%14c%13cc(O)c%13ccccc%14%13)cc%12c%11)n(C)c%10)n9)n(C)c8)n(C)c7)n6)n5)n(C)c4)n3)n(C)c2)n(C)c1 (stereo not shown) [P3A-E5K-2] as the molecule, how does the IC50 (MCF7 cells) read?
**A.** Its IC50 is over 100 nM.

From US11185593B2, “Alkylating agent for alkylating target with driver oncogene mutation” (Chiba Prefecture, priority 2013, dated 2021)
